Source: the supplement of paper PMC10307832

How the values were obtained:
Test in all cases: relative viability (nuclei count vs DMSO), 5 days (fraction); higher = more cells survive
[1] = compound: C(C(=O)C(=O)O)Br [Bromopyruvate] + Cc1cc(Nc2cc(N3CCN(C)CC3)nc(Sc3ccc(NC(=O)C4CC4)cc3)n2)n[nH]1 [Tozasertib] (partner 0.1 µM)
Summary of the method: (§1)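 Lung cancer cell lines in 1536-well plates were dosed by pin tool the day after seeding, either with one drug alone or with a fixed anchor-drug dose plus five library-drug doses (not always all listed) in √10 steps. After 5 days, cells were fixed and their nuclei stained in one step (final 0.05% Triton X-100, 1% formaldehyde, 1 ug/ml Hoechst), then counted on 4× images. Relative viability is the nuclei count in treated wells divided by that in vehicle wells. Values are medians of duplicate plates.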

[2] = compound: CC(O)(CS(=O)(=O)c1ccc(F)cc1)C(=O)Nc1ccc(C#N)c(C(F)(F)F)c1 [Bicalutamide] + CC1(C)CCC(c2ccc(Cl)cc2)=C(CN2CCN(c3ccc(C(=O)NS(=O)(=O)c4ccc(N[C@H](CCN5CCOCC5)CSc5ccccc5)c(S(=O)(=O)C(F)(F)F)c4)cc3)CC2)C1 [Navitoclax] (partner 0.5 µM)
Summary of the method: as §1

[3] = compound: CC(O)(CS(=O)(=O)c1ccc(F)cc1)C(=O)Nc1ccc(C#N)c(C(F)(F)F)c1 [Bicalutamide] + C[C@@H](Oc1cc(-c2cnn(C3CCNCC3)c2)cnc1N)c1c(Cl)ccc(F)c1Cl [Crizotinib] (partner 1 µM)
Summary of the method: as §1

[4] = compound: CC(O)(CS(=O)(=O)c1ccc(F)cc1)C(=O)Nc1ccc(C#N)c(C(F)(F)F)c1 [Bicalutamide] + Nc1nc2[nH]cc(CCc3ccc(C(=O)N[C@@H](CCC(=O)O)C(=O)O)cc3)c2c(=O)[nH]1 [Pemetrexed] (partner 0.2 µM)
Summary of the method: as §1

Cell Line | relative viability ([1]; first compound 1 µM) | relative viability ([1]; first compound 3.162 µM) | relative viability ([1]; first compound 10 µM) | relative viability ([1]; first compound 31.62 µM) | relative viability ([1]; first compound 100 µM) | relative viability ([2]; first compound 0.08 µM) | relative viability ([2]; first compound 0.253 µM) | relative viability ([2]; first compound 0.8 µM) | relative viability ([2]; first compound 2.53 µM) | relative viability ([3]; first compound 0.08 µM) | relative viability ([3]; first compound 0.253 µM) | relative viability ([3]; first compound 0.8 µM) | relative viability ([3]; first compound 2.53 µM) | relative viability ([4]; first compound 0.08 µM) | relative viability ([4]; first compound 0.253 µM) | relative viability ([4]; first compound 0.8 µM) | relative viability ([4]; first compound 2.53 µM)
ChaGo-K-1 | 0.234 | 0.263 | 0.247 | 0.216 | 0.205 | 0.983 | 1.02 | 1.17 | 0.793 | 1.27 | 1.1 | 1.16 | 1.03 | 0.256 | 0.252 | 0.251 | 0.247
COR-L 105 | 0.36 | 0.34 | 0.279 | 0.352 | 0.435 | 0.694 | 0.696 | 0.726 | 0.703 | 0.874 | 0.728 | 0.661 | 0.448 | 1.25 | 1.19 | 1.08 | 1.05
NCI-H1975 | 0.733 | 0.811 | 0.806 | 0.729 | 0.646 | 0.951 | 1.05 | 1.23 | 1.12 | 0.97 | 0.915 | 1.08 | 0.781 | 0.316 | 0.311 | 0.299 | 0.306
NCI-H2009 | 0.743 | 0.78 | 0.767 | 0.723 | 0.444 | 1.29 | 1.24 | 1.14 | 1.08 | 1.01 | 1.01 | 1.04 | 0.973 | 1.13 | 1.04 | 1.11 | 0.91
SK-LU-1 | 0.328 | 0.349 | 0.333 | 0.382 | 0.266 | 1.04 | 1.04 | 1.38 | 0.902 | 0.936 | 0.967 | 1.08 | 0.854 | 1.03 | 1.02 | 1.19 | 0.928
NCI-H2347 | 0.69 | 0.534 | 0.715 | 0.479 | 0.609 | 0.853 | 0.795 | 0.848 | 0.774 | 0.797 | 0.621 | 0.689 | 0.675 | 0.463 | 0.444 | 0.453 | 0.445
HCC-366 | 0.136 | 0.142 | 0.0931 | 0.12 | 0.0884 | 1.08 | 1.03 | 1.17 | 1.02 | 0.599 | 0.473 | 0.698 | 0.328 | 0.16 | 0.189 | 0.191 | 0.163
EMC-BAC-2 | 0.295 | 0.289 | 0.317 | 0.267 | 0.314 | 1.19 | 1.11 | 1.21 | 1.16 | 0.781 | 0.716 | 0.904 | 0.586 | 0.447 | 0.41 | 0.489 | 0.444
NCI-H3122 | 0.381 | 0.378 | 0.468 | 0.417 | 0.382 | 0.991 | 1.01 | 1.02 | 1.03 | 0.281 | 0.26 | 0.277 | 0.281 | 0.202 | 0.193 | 0.197 | 0.199
NCI-H1944 | 0.224 | 0.266 | 0.243 | 0.283 | 0.273 | 1.04 | 1.08 | 1.08 | 1.03 | 1.07 | 0.982 | 1.28 | 1.12 | 0.562 | 0.599 | 0.681 | 0.611
EPLC-272H | 0.257 | 0.372 | 0.241 | 0.325 | 0.215 | 1.33 | 1.03 | 1.23 | 0.956 | 0.947 | 0.898 | 1.01 | 0.833 | 0.424 | 0.322 | 0.359 | 0.207
NCI-H1915 | 0.438 | 0.455 | 0.445 | 0.444 | 0.392 | 0.815 | 0.76 | 0.804 | 0.812 | 0.873 | 0.815 | 0.969 | 0.889 | 0.509 | 0.516 | 0.481 | 0.48
NCI-H647 | 0.289 | 0.221 | 0.29 | 0.298 | 0.389 | 1.15 | 1.09 | 1.46 | 1.18 | 1.11 | 1.23 | 1.56 | 0.777 | 0.187 | 0.172 | 0.172 | 0.151
NCI-H441 | 0.597 | 0.614 | 0.605 | 0.615 | 0.565 | 0.551 | – | 0.622 | 0.518 | 0.917 | – | 0.598 | 0.61 | 0.311 | 0.281 | 0.284 | 0.272
NCI-H23 | 0.347 | 0.388 | 0.361 | 0.291 | 0.105 | 0.86 | 0.642 | 0.949 | 0.754 | 0.495 | 0.467 | 0.493 | 0.399 | 0.52 | 0.528 | 0.854 | 0.578
SK-MES-1 | 0.877 | 0.926 | 0.948 | 0.98 | 0.9 | 1.13 | 1.19 | 1.26 | 1.17 | 1.03 | 0.902 | 1.02 | 1.01 | 1.04 | 0.867 | 0.981 | 0.832
NCI-H2170 | 0.689 | 0.708 | 0.798 | 0.761 | 0.868 | 0.553 | 0.506 | 0.661 | 0.591 | 1.12 | 1.18 | 1.39 | 1.18 | 0.251 | 0.262 | 0.281 | 0.25
